Test results published in publication PMC4399336 (2015).

Test system: 15 base pair dsDNA, double labeled (Alexa488 / Alexa568) (DNA, duplex) GGAGACCAGAGGCCT/AGGCCTCTGGTCTCC
Assay: FRET and fluorescence lifetime titration (donor 517 nm, acceptor 600 nm)
Conditions: 20 °C; 1 μM DNA; intercalation, qualitative; end-to-end distance ratio r1/r0 1.028; buffer not stated

binding: yes
SMILES: [Ru+2].c1ccc(-c2ccccn2)nc1.c1ccc(-c2ccccn2)nc1.c1ccc2nc3c4cccnc4c4ncccc4c3nc2c1
